From paper PMC5441580, “GPR40 partial agonist MK-2305 lower fasting glucose in the Goto Kakizaki rat via suppression of endogenous glucose production” (PLoS ONE, 2017) come the findings set out here.

Where “and” joins values, the source holds several entries; their conditions need not be identical. Equal values may be shown once.

The test system of data set [1] is pancreatic islets of Langerhans from wild-type mice. The experiment in a line: glucose stimulated insulin secretion (GSIS), isolated wild-type islets. The format is cell-based, mouse. The conditions noted are these: WT islets; for secreted insulin per islet: 10 uM compound, 60 min, individual wells. The method, then:
Pancreatic islets of Langerhans were isolated from wild-type and GPR40−/− mice (littermates) by collagenase digestion and discontinuous Ficoll gradient separation. […] Insulin secretion was determined by a 1 hr static incubation in Krebs-Ringer bicarbonate (KRB) buffer in a 96-well format as previously described. Briefly, islets were first preincubated in KRB medium with 2 mmol/l glucose for 30 min and were then transferred to a 96-well plate (three islets/well) and incubated with 200 μl of the KRB medium with 2 or 15 mmol/l glucose in the presence or absence of testing compounds for 60 min. The buffer was removed from the wells at the end of the incubation and assayed for insulin levels using the Ultrasensitive Rat Insulin ELISA kit (ALPCO, Salem, NH). All insulin secretion data were normalized by total islet numbers (ex: three islets/well), so the unit is secreted insulin (ng/ml) per islet.

Data set [2] deals with GK rats. The data set can be described thus: 13C-labeled OGTT, 13C metabolites in liver and skeletal muscle. The format is in vivo, rat. The conditions noted are these: for 13C Labeled Metabolite, Ala C3 / 13C Labeled Metabolite, G6P C1 / 13C Labeled Metabolite, Glyc C1 / 13C Labeled Metabolite, Lac C3: [1-13C] glucose, acute treatment, individual animals. The method, then:
GK rat OGTT procedures were followed as above. Animals were treated PO at 5 ml/kg with MK-2305 at 10 mg/kg or vehicle at time = -60 min. At time = 0, animals were challenged PO at 10 ml/kg dose volume with [1-^13C] glucose prepared in distilled water at 1 g/kg (Sigma-Aldrich). Blood glucose was measured pre-treatment and at t = 0, 20, 40, 60, 120 minutes post challenge. Following the blood glucose measurement at time = 120 min, animals were anesthetized with Isoflurane (Isothesia, Henry Schein, Dublin, OH) and samples of liver and skeletal muscle were collected. Tissue samples were processed using a methanol/water based extraction procedure as follows. Frozen tissue was weighed and added to tubes containing 80% methanol at a ratio of 100 mg tissue per mL 80% methanol. The samples were homogenized at 4°C using a Polytron homogenizer equipped with a 12 mm stainless steel head. Samples were then centrifuged at 25,000 rcf for 10 min at 4°C, the supernatant collected, and the pellet extracted again using an equivalent volume of 80% methanol. The supernatants from both extractions were pooled and the methanol evaporated under nitrogen. The samples were then reconstituted in 180 μl 0.1M sodium phosphate in D2O (pH 7.4) for NMR analysis. ^13C NMR of tissue extracts was performed on a 600 MHz Bruker NMR spectrometer (David H. Murdock Research Institute) using the following parameters: 45° pulse, D1 = 0.2 sec, NS = 3200 averages, ^1H broadband decoupling (WALTZ-16), acquisition time ~45 min. […] These NMR signals were integrated and converted to absolute units (μmoles) using ^13C NMR spectra from standard solutions of each metabolite of known concentration acquired under identical conditions. Glycogen is a primary site of glucose disposal in both liver and muscle, however glycogen was not preserved in our tissue extraction protocol. To quantify tissue ^13C-glycogen, a separate piece of tissue from each sample was analyzed. Briefly, tissue samples were saponified in hot KOH, and this was followed by glycogen precipitation with NaSO4 and ethanol, and then degradation with amyloglucosidase. The resulting glycogen-derived glucose solution was analyzed for total glucose using a glucose oxidase / horseradish peroxidase assay kit and fluorescence-based product detection according to the manufacturers’ instructions (BioVision Glycogen Assay Kit, Milpitas, CA).

A short description of data set [3]: protein binding assay in mouse plasma. The format is in vitro ADME. The conditions noted are these: read-out: free fraction.
The subject of data set [4] is GK rats. The data set can be described thus: OGTT with insulin co-measurement on Day 13 of chronic treatment, parallel set of animals. Format: in vivo, rat. Further details: Change in plasma insulin from baseline during OGTT (delta insulin): unit not given here. The conditions noted are these: for Change in plasma insulin from baseline during OGTT (delta insulin): day 13, individual animals. The method, then:
On the day of the study, male GK rats were bled via tail snip, and blood glucose was measured via glucometer (OneTouch Ultra, Lifescan Inc., Milpitas, CA). Fed glucose was measured at 8 A.M. (lights on 7 A.M.– 7 P.M.) and used to select and sort animals into treatment groups (n = 8/ GK group, plus n = 6/WKY control group). Animals were then placed into clean cages, and food was removed. After a 5 hr fast, glucose was measured at time = -60 min, followed by administration of vehicle plus or minus compound via oral gavage (PO) at a dosing volume of 5 ml/kg. Dosages from 0.3–10 mg MK-2305 / kg body weight were tested. Both the GK and WKY control groups received vehicle (0.5% methylcellulose). Blood glucose was measured again (time = 0) immediately prior to a dextrose challenge of 1 g/kg at 10 ml/kg dose volume (Dextrose, Hospira Inc., Lake Forrest IL) and then again at 20, 40, 60, and 120 min after the glucose challenge. Insulin was co-measured to test the glucose-dependent secretory response to MK-2305 delivered acutely PO. To capture insulin secretion during the OGTT, blood was collected at t = -60, 0, 20, 40, 60 min post glucose challenge. […] Values of percent inhibition vs. vehicle for each treatment were generated from the AUC data. Maximally efficacious dose (MED) was defined as the minimum dosage generating a maximum inhibition of glucose excursion achieved with this compound in the OGTT assay.
In a parallel set of animals (n = 30) treated with standard diet or MK-2305 at 30 mg/kg diet, an OGTT with insulin co-measurement was performed on Day 13. On the day of OGTT, n = 10 vehicle animals and n = 10 MK-2305-treated animals were administered 0.5% methylcellulose PO at a dosing volume of 5 ml/kg. For an acute comparison, n = 10 vehicle animals were administered MK-2305 at 30 mg/kg PO. The procedure for an acute OGTT was identical to that described above.

[5] abbreviates: 10 mg/kg PO, [1-13C] glucose OGTT, GK rats.

On to `O=C1NC(=O)C(C2CCOc3cc(Oc4ccc(C(F)(F)F)cc4Cl)ccc32)S1` (centres unmarked) [MK-2305], for which the “secreted insulin per islet” value was 0.6472 ng/ml per islet and 0.4249 ng/ml per islet and 0.7026 ng/ml per islet and 0.678 ng/ml per islet and 0.4061 ng/ml per islet and 0.594 ng/ml per islet and 0.652 ng/ml per islet and 0.541 ng/ml per islet in data set [1] (2mM glucose); 5.982 ng/ml per islet and 3.69 ng/ml per islet and 4.728 ng/ml per islet and 4.578 ng/ml per islet and 5.448 ng/ml per islet and 3.948 ng/ml per islet and 4.236 ng/ml per islet and 5.162 ng/ml per islet in data set [1] (15 mM Glucose). Moreover, the “effect on GSIS” value in data set [1] (high (15 mM) but not basal (2 mM) glucose) was “acutely stimulate GSIS”. The “effect on disposal of 13C-glucose into 13C-G6P, 13C-glycogen, 13C-lactate and 13C-alanine in liver” value in data set [2] (setting [5]) is “significant decreases”. For the same compound, in data set [2] (setting [5]), the “effect on disposal of 13C-glucose into metabolites in muscle” value is listed as “no significant effects”. The “13C Labeled Metabolite, Ala C3” value was 0.07795 umoles/g liver and 0.1076 umoles/g liver and 0.03915 umoles/g liver and 0.01144 umoles/g liver and 0.01402 umoles/g liver and 0.02433 umoles/g liver and 0.05001 umoles/g liver and 0.007673 umoles/g liver in data set [2]; 0.1279 umoles/g muscle and 0.07989 umoles/g muscle and 0.1157 umoles/g muscle and 0.07123 umoles/g muscle in data set [2] (skeletal muscle). Further, the “13C Labeled Metabolite, G6P C1” value in data set [2] was 0.02684 umoles/g liver and 0.01164 umoles/g liver and 0.007287 umoles/g liver and 0.01533 umoles/g liver and 0.00988 umoles/g liver and 0.01421 umoles/g liver and 0.01349 umoles/g liver and 0.0107 umoles/g liver; in data set [2] (skeletal muscle) it was 0.05019 umoles/g muscle and 0.01903 umoles/g muscle and 0.04767 umoles/g muscle and 0.01045 umoles/g muscle and 0.004493 umoles/g muscle and 0.01768 umoles/g muscle and 0.003514 umoles/g muscle. Besides, the “13C Labeled Metabolite, Glyc C1” value in data set [2] is 1.292 umoles/g liver and 0.3555 umoles/g liver and 0.1582 umoles/g liver and 0.4672 umoles/g liver and 0.1107 umoles/g liver and 0.1399 umoles/g liver and 0.3766 umoles/g liver and 0.2884 umoles/g liver; in data set [2] (skeletal muscle), 0.2857 umoles/g muscle and 0.133 umoles/g muscle and 1.635 umoles/g muscle and 0.328 umoles/g muscle and 0.06707 umoles/g muscle and 0.1828 umoles/g muscle and 0.4005 umoles/g muscle. In addition, the “13C Labeled Metabolite, Lac C3” value in data set [2] was 0.03897 umoles/g liver and 0.06288 umoles/g liver and 0.02257 umoles/g liver and 0.01974 umoles/g liver and 0.01299 umoles/g liver and 0.02143 umoles/g liver and 0.0406 umoles/g liver and 0.007673 umoles/g liver; in data set [2] (skeletal muscle), 0.2756 umoles/g muscle and 0.03448 umoles/g muscle and 0.06757 umoles/g muscle and 0.07739 umoles/g muscle and 0.08426 umoles/g muscle. In addition, the fraction unbound in data set [3] turned out to be 0.026. The “Change in plasma insulin from baseline during OGTT (delta insulin)” value was 0.309 and 1.604 and 0.324 and 0.21 and 0.156 and 0.86 and 1.776 and 0.805 and -0.061 and 0.012 in data set [4] (Acute, 30 mpk, Time 0, 30 mg/kg); 1.499 and 1.114 and 1.989 and 2.273 and 1.824 and -0.14 and 3.286 and 1.17 and 0.172 and 0.765 in data set [4] (Acute, 30 mpk, Time 20, 30 mg/kg); 0.099 and 0.177 and 0.004 and -0.004 and -0.413 and -0.187 and -0.251 and 0.259 and -0.133 and 0.416 in data set [4] (Acute, 30 mpk, Time 60, 30 mg/kg); 0 in data set [4] (Acute, 30 mpk, Time -60); 0.06 and -0.177 and -0.627 and -0.109 and -0.564 and -0.273 and 0.845 and 0.077 and 0.103 and 0.198 in data set [4] (Chronic, 30 mkd, Time 0); 0.473 and 0.233 and 0.417 and 0.389 and 0.164 and 0.072 and 0 and 0.34 and 0.387 and 0.196 in data set [4] (Chronic, 30 mkd, Time 20). The “Change in plasma insulin from baseline during OGTT (delta insulin)” value in data set [4] (Chronic, 30 mkd, Time 60) is -0.534 and -0.189 and -0.192 and 0.192 and -0.625 and -0.523 and -0.322 and -0.003 and -0.166 and -0.044; in data set [4] (Chronic, 30 mkd, Time -60), 0. For the same compound, the “effect on plasma insulin after a glucose challenge” value in data set [4] (OGTT Day 13, 30 mg/kg acutely PO and chronically in diet, vs. vehicle) is on record as “increased plasma insulin”.
